Experimental data: PMC6106931 (Alzheimer's Research & Therapy, 2018)

Legend:
t-tau/p-tau181p = assay: CSF total tau / p-tau181P, Study ALZ1005; assay type: in vivo, human; details: for CSF P-tau percent change from baseline at day 28, Mean (SD) / CSF P-tau percent change from baseline at day 28, Median (range) / CSF total tau percent change from baseline at day 28, Mean (SD) / CSF total tau percent change from baseline at day 28, Median (range): Caucasian early AD
Method: In addition, exploratory measurements of plasma/CSF levels of APP fragments (sAPPα, sAPPβ, and total sAPP) and CSF levels of BACE1, t-tau, and p-tau were performed.
Baseline Aβ1–42, p-tau181P, and t-tau concentrations were measured using Innotest® Phospho-TAU181P, Innotest® hTAU Ag, and Innotest® β-AMYLOID1–42 (Innogenetics/Fujirebio, Ghent, Belgium) and the Luminex analytical platform (Luminex Corp., Austin, TX, USA). CSF samples from both the ALZ1005 (Caucasian) and ALZ1008 (Japanese) studies were analyzed in the same laboratory setting using the same assays and analytical platform. Diagnostic threshold CSF concentrations for AD vs. normal controls for Aβ1–42 were applied to the current sample set to judge the likelihood of having cerebral amyloid plaque deposition.
Treatment effect on plasma/CSF Aβ as compared with placebo was estimated by 95% CI for percent changes from baseline in each of the Aβ fragments (Aβ1–37, Aβ1–38, Aβ1–40, and Aβ1–42) in CSF and plasma. For primary and secondary biomarkers, day 28% changes from baseline, the least squares (LS) means (converted to original units), and treatment differences relative to placebo (with corresponding 95% CI) were analyzed on the basis of an analysis of covariance model that included treatment group and baseline score as a covariate. Day 28 changes from baseline in CSF tau/p-tau were summarized using descriptive statistics. Data were summarized and plotted by dose group, and exposure-response relationship was explored. […] Variability of predose baseline parameters vs. day 28 individual CSF ratios of Aβ1–42 to Aβ1–40 across treatment groups was explored graphically. Analyses were performed on individual populations of preclinical AD and MCI due to AD as well as the combined population of early AD.

[1] = cited from earlier work
[2] = human, in vivo, 4 weeks
Method: Safety and tolerability were assessed during the study by recording adverse events (AEs), clinically significant abnormalities, clinical laboratory tests, ECG, and vital signs and by performing physical, neurological, and MRI examinations. All enrolled participants were included in the safety analysis population.

C[C@@]1(c2cc(NC(=O)c3ccc(C#N)cn3)ccc2F)C=CSC(N)=N1 [atabecestat]
changes in CSF t-tau or p-tau over 4-week treatment (t-tau/p-tau181p; 10-mg and 50-mg doses, Caucasian and Japanese): no relevant changes | CSF P-tau percent change from baseline at day 28, Mean (SD) (t-tau/p-tau181p; 10 mg daily): 3.56 (4.797) % | CSF P-tau percent change from baseline at day 28, Median (range) (t-tau/p-tau181p; 10 mg daily): 3.45 (− 4.6; 11.5) % | CSF total tau percent change from baseline at day 28, Mean (SD) (t-tau/p-tau181p; 10 mg daily): 4.18 (7.629) % | CSF total tau percent change from baseline at day 28, Median (range) (t-tau/p-tau181p; 10 mg daily): 6.76 (− 11.2; 16.1) % | CSF P-tau percent change from baseline at day 28, Mean (SD) (t-tau/p-tau181p; 50 mg daily): 7.36 (3.648) % | CSF P-tau percent change from baseline at day 28, Median (range) (t-tau/p-tau181p; 50 mg daily): 7.42 (1.6; 16.7) % | CSF total tau percent change from baseline at day 28, Mean (SD) (t-tau/p-tau181p; 50 mg daily): 8.02 (6.557) % | CSF total tau percent change from baseline at day 28, Median (range) (t-tau/p-tau181p; 50 mg daily): 7.64 (− 4.5; 23.4) % | plasma atabecestat free fraction [1]: 6% | TEAE incidence (genital herpes) [2]: 5.6%
